We go through 22 molecules from ChEMBL document CHEMBL2029277, “Discovery of XL413, a potent and selective CDC7 inhibitor” (Bioorg Med Chem Lett, 2012).

The target of series [1] is T1, Cell division cycle 7-related protein kinase (Homo sapiens, UniProt O00311). The series is described as follows: Inhibition of N-terminus Myc-tagged human CDC7 expressed in Escherichia coli by chemiluminescence assay in presence of ATP.
Series [2] has as its target Casein kinase II alpha/beta (Homo sapiens, UniProt P68400). The series is described as follows: Inhibition of human tertrameric CK2alphabeta holoenzyme using casein as substrate after 1 to 2 hrs by chemiluminescence assay in presence of 2 uM ATP. In kind it is protein-complex assay.
The nature of series [3]: Plasma concentration in mouse at 100 mg/kg, po measured after 4 hrs. In kind it is ADME, organism-based. Further details: dose 100 mg/kg, route oral.
Series [4] in a line: Plasma concentration in mouse at 100 mg/kg, po measured after 1 hr. Also noted: dose 100 mg/kg, route oral. Type of series: ADME, organism-based.
Series [5] addresses T1, Cell division cycle 7-related protein kinase. The series is described as follows: Inhibition of CDC7 in human MDA-MB-231T cells assessed as inhibition of MCM2 phosphorylation at Ser53 after 4 hrs. Type of series: cell-based.
The target in series [6] is Serine/threonine-protein kinase pim-1 (Homo sapiens, UniProt P11309). Briefly: Inhibition of N-terminus His-tagged human PIM1 expressed in Escherichia coli using AKRRRLSA as substrate after 1 to 2 hrs by chemiluminescence assay.
Chain of Serine/threonine-protein kinase pim-1 (P11309 whole entry): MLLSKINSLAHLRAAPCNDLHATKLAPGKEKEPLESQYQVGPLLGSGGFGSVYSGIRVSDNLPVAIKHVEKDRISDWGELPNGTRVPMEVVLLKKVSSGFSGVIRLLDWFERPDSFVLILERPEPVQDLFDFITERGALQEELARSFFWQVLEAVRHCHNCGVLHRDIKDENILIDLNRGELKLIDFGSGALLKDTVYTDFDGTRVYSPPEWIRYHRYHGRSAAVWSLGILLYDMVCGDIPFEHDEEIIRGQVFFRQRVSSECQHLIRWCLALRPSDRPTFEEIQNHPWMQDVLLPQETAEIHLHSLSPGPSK

Chain of Casein kinase II alpha/beta (P67870 whole entry): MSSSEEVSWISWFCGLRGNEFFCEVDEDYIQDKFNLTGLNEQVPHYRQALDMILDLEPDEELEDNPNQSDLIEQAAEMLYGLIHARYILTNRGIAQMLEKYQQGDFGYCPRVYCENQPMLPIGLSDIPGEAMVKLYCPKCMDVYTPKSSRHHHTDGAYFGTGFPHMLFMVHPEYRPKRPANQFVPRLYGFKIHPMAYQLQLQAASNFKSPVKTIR
Chain of Casein kinase II alpha/beta (P68400 whole entry): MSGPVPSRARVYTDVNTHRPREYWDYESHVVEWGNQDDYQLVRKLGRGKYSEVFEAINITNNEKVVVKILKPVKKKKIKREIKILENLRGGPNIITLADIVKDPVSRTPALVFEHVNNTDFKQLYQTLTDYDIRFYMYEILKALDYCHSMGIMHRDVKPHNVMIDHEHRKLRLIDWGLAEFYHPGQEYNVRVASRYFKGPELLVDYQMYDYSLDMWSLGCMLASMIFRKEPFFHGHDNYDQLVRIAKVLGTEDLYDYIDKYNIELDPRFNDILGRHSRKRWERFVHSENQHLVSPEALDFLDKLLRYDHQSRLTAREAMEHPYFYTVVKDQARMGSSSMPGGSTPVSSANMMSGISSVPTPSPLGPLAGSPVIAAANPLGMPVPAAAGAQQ
T1 sequence (O00311 whole entry): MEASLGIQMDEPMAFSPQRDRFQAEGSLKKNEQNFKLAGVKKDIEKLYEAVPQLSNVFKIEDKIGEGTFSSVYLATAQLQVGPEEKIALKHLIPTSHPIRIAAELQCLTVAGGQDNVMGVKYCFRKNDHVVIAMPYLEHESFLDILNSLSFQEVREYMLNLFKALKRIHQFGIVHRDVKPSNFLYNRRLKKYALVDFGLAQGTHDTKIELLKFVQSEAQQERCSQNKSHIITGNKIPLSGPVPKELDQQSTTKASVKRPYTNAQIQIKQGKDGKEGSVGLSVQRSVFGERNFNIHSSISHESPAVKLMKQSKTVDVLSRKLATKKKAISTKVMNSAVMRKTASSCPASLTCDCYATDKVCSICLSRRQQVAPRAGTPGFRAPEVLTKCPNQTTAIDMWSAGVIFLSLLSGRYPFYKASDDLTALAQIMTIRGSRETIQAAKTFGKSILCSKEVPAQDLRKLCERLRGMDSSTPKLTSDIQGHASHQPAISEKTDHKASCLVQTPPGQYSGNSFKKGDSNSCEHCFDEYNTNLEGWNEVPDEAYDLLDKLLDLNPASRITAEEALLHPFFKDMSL

Consider `O=c1[nH]cnc2c1oc1ccc(Br)cc12`, for which the IC50 turned out to be 2000 nM in series [1] and 1500 nM in series [2].

The molecule `O=c1[nH]c(CN2CC[C@H](O)C2)nc2c1oc1ccc(Br)cc12` returned a concentration at 4 h in series [3] of 49 µM. This molecule also registered a concentration at 1 h in series [4] of 101 µM.

For the molecule `O=c1[nH]c(CN2CC[C@H](O)C2)nc2c1oc1ccc(Cl)cc12`, the IC50 in series [1] is 2200 nM.

With `COc1ccc2oc3c(=O)[nH]c(CN4CC[C@H](O)C4)nc3c2c1`, in series [1], the IC50 came out at 9000 nM.

As for `O=c1[nH]c(CN2CC[C@H](O)C2)nc2c1oc1ccc3c(c12)OCO3`, the IC50 in series [1] is 14000 nM.

Turning to `O=c1[nH]c(CN2CC[C@H](O)C2)nc2c1oc1cc(O)c(Br)cc12`, the concentration at 4 h in series [3] is 0.15 µM. For the same molecule, the IC50 in series [1] amounted to 1000 nM. This molecule registered a concentration at 1 h in series [4] of 1.4 µM.

Turning to `CO[C@H]1CCN(Cc2nc3c(oc4ccc(Br)cc43)c(=O)[nH]2)C1`, the IC50 in series [1] came out at 11 nM; in series [2], 512 nM; in series [5], 362 nM; in series [6] it was 77 nM.

On to `O=c1[nH]c(C2CNC2)nc2c1oc1ccc(Br)cc12`, for which the IC50 in series [1] was 7.7 nM; in series [2], 43 nM; in series [5], 2540 nM; in series [6] it was 18 nM.

Consider `O=c1[nH]c([C@@H]2CCCN2)nc2c1oc1ccc(Br)cc12`, for which, in series [3], the concentration at 4 h is 71 µM. Also, the IC50 in series [1] came out at 4.8 nM; in series [2] it was 91 nM; in series [5] it was 75 nM; in series [6] it was 31 nM. The concentration at 1 h in series [4] turned out to be 195 µM.

As for `O=c1[nH]c([C@H]2CCCN2)nc2c1oc1ccc(Br)cc12`, the IC50 in series [1] is 70 nM; in series [2] it was 1510 nM; in series [5], 4590 nM; in series [6], 104 nM.

With `O=c1[nH]c(C2CCNCC2)nc2c1oc1ccc(Br)cc12`, the IC50 was found to be 6.2 nM in series [1], 50 nM in series [2], 1430 nM in series [5] and 22 nM in series [6].

Consider `CN1CCC[C@H]1c1nc2c(oc3ccc(Br)cc32)c(=O)[nH]1`, for which the IC50 in series [1] worked out at 7.3 nM; in series [2], 63 nM; in series [5] it was 802 nM; in series [6], 11 nM.

For `O=c1[nH]c([C@@H]2C[C@@H](O)CN2)nc2c1oc1ccc(Br)cc12`, the IC50 in series [1] was 9.1 nM; in series [2] it was 418 nM; in series [5] it was 440 nM; in series [6], 73 nM.

As for `O=c1[nH]c([C@@H]2C[C@@H](F)CN2)nc2c1oc1ccc(Br)cc12`, the concentration at 4 h in series [3] came to 46 µM. Also, the IC50 is 3.7 nM in series [1], 238 nM in series [2], 82 nM in series [5] and 46 nM in series [6]. In series [4], this molecule returned a concentration at 1 h of 82 µM.

For the molecule `O=c1[nH]c([C@@H]2C[C@H](F)CN2)nc2c1oc1ccc(Br)cc12`, the IC50 in series [1] amounted to 11 nM; in series [2], 3620 nM; in series [5] it was 566 nM; in series [6], 11 nM.

On to `COc1ccc2oc3c(=O)[nH]c([C@@H]4CCCN4)nc3c2c1`, for which the IC50 was found to be 6.1 nM in series [1], 238 nM in series [2], 1370 nM in series [5] and 77 nM in series [6].

As to `O=c1[nH]c([C@@H]2C[C@@H](F)CN2)nc2c1oc1ccc(Cl)cc12`, the IC50 in series [1] came to 4 nM; in series [2], 752 nM; in series [5] it was 167 nM; in series [6], 65 nM.

Consider `COc1ccc2oc3c(=O)[nH]c([C@@H]4C[C@@H](F)CN4)nc3c2c1`, for which the IC50 in series [1] amounted to 3.9 nM; in series [2], 733 nM; in series [5] it was 292 nM; in series [6], 102 nM.

Turning to `Cc1cc(-c2cc(-c3ccccc3)nc(=O)[nH]2)ccc1O`, the concentration at 4 h in series [3] was 0.31 µM. In series [4], this molecule displayed a concentration at 1 h of 0.82 µM.

As for `O=C(O)C1CCN(Cc2nc3c(oc4ccc(Br)cc43)c(=O)[nH]2)C1` (racemic), the IC50 is 13 nM in series [1], 49 nM in series [2], > 40000 nM in series [5] and 142 nM in series [6].

For the molecule `O=c1[nH]c(C2CCCNC2)nc2c1oc1ccc(Br)cc12` (racemic), the IC50 is 15 nM in series [1], 175 nM in series [2], 2360 nM in series [5] and 39 nM in series [6].

Take `CC(N)c1nc2c(oc3ccc(Br)cc32)c(=O)[nH]1` (racemic): the IC50 in series [1] worked out at 7.9 nM; in series [2], 757 nM; in series [5], 874 nM; in series [6] it was 72 nM.

The term IC50 denotes the point on the concentration scale where inhibition reaches its midpoint.
